Results on two molecules are retold here after publication PMC7662321, “Andrographolide and Its 14-Aryloxy Analogues Inhibit Zika and Dengue Virus Infection” (Molecules, 2020).

Broadly, the EC50 is the concentration that produces a half-maximal response. As usually defined, the CC50 is the concentration that lowers cell viability or growth by half.

Data set [1] deals with DENV 2. Set-up: method as in PMID 30396090. The following applies: HeLa cells; read-out: EC50 towards DENV 2; cited from earlier work.
Data set [2] can be described thus: MTT cytotoxicity assay in Vero cells. In kind it is cell-based. The following applies: African green monkey, Vero cells (monkey kidney), 24 h post-treatment. Here is the method:
Cytotoxicity of each compound towards cells for four selected cell lines in the range of 1 to 500 µM was evaluated using the MTT (3-(4,5-dimethylthiazol-2-yl)-2,5-diphenyltetrazolium bromide) assay at 24 h post-treatment, in parallel with control and vehicle-treated cells (0.1% dimethyl sulfoxide (DMSO)). The 50% cytotoxic concentration (CC50) values calculated from the dose-response curve (Supplementary Figures S2–S5) are shown in Table 1. Overall, a range of cytotoxicities were seen from the four compounds across the […]. The most cytotoxic combination was ZAD-1 and BHK-21 cells, while the least cytotoxic combination was andrographolide and BHK-21 cells (Table 1).
A549 cells were cultured in ninety-six-well tissue culture plates under standard conditions until the cells reached 90% confluence. The cell culture medium was removed and then cells were incubated with various concentrations of andrographolide (1–100 μM) diluted in complete medium with FBS prior to being cultured for 24 h under standard conditions before analysis using either the Vybrant MTT Cell proliferation assay kit (V13154, Invitrogen) or the alamarBlue (Thermo Fischer Scientific, Waltham, MA, USA) assay kit according to the manufacturers recommendations. Values were determined from 8 (MTT assay) or 3 (alamarBlue) independent replicates. Negative controls (only media and media with 0.1% DMSO) and positive controls (5% DMSO) were included. To determine cell number, cell cultures were trypsinized by the addition of 0.25% Trypsin/0.1% ethylelediaminetetraacetic acid (EDTA) for 3 min and then cell suspensions were diluted with 0.4% trypan blue solution. Cells were counted using a hemocytometer. Cell morphology was additionally observed under an inverted microscope after 24 h treatment with various concentrations of each compound.
Figu re S3. Cytotoxicity of ZAD -1 (A), ZA D-2 (B), ZA D-3 (C), and andro grapholide (D) to Ve r o (monkey kidney) cells. Ve r o cells were incubated with various concentrations of each compound for 24 hrs followed by MTT cell viability assay. The experiment was undertaken independently in 4 replicates. DMSO at the same concentrations was used as a control. 10% ethanol, PBS, and milli- Q water were used as a positive control of cell death. The bars show mean ± SD. […]
Background: Tetrazolium assays rely on reduction of a dye to a coloured formazan, in cell work by metabolically active cells.

Data set [3] relates to DENV 2. Set-up: method as in PMID 30396090. The following applies: HepG2 cells; read-out: EC50 towards DENV 2; cited from earlier work.
The next data set relates to PGK1. The data set is described as follows: Western blot of PGK1 expression in treated A549 cells. The data set is classed as cell-based, human. Particulars: A549, 25 µM, 24 h, normalized to GAPDH. Here is the method:
To confirm the 2D-gel analysis results, HSPA1A and PGK1 were selected for the validation by Western blot. The same three experimental conditions were established, namely A549 cells treated with vehicle (0.025% DMSO), 25 μM andrographolide or 25 μM ZAD-1. Glyceraldehyde-3-phosphate dehydrogenase (GAPDH) was used as a loading control and the proteins were normalized to this protein. […] While the difference in HSPA1A expression between andrographolide treatment and ZAD-1 treatment is consistent with the spot intensity data (Table 3), the spot density for the control DMSO treatment is not consistent with the western blot result.
A total of 40 µg of proteins were separated by electrophoresis through a 12% sodium dodecyl sulfate (SDS) polyacrylamide gel and transferred to a nitrocellulose membrane by electroblotting. The membranes were blocked with 5% skim milk in TBS-T (20 mM Tris, 140 mM NaCl and 0.1% Tween-20) at room temperature for 1 h with shaking. […] The signal of specific protein bands was detected using the Luminata Forte Western HRP Substrate (Millipore Corp., Burlington, MA, USA) and recorded by film autoradiography. […]
On the technique in general: Immunoblotting shows a protein as a band on a membrane.

Details of data set [4]: method as in PMID 11081986. Particulars: cited from earlier work.

The structures appear in SMILES notation. Read-outs that look alike come from different tables or passages of the source.

Consider `C=C1CC[C@@H]2[C@](C)(CO)[C@H](O)CC[C@@]2(C)[C@@H]1C/C=C1/C(=O)OC[C@H]1O` [Andrographolide], for which the figures for the EC50 in the data set on DENV 2 [1] and in the data set with DENV 2 [3] were 22.7 µM and 21.3 µM, respectively. Moreover, the CC50 at 24 h in data set [2] turned out to be 469 ± 73 µM. For the same molecule, the “PGK1 expression relative to the vehicle” value in the data set on PGK1 is listed as “significantly upregulated”. Also, in data set [4], the bioavailability result is “relatively poor”.
As to `C=C1CC[C@@H]2[C@]3(C)COC(C)(C)O[C@@H]3CC[C@@]2(C)[C@@H]1C/C=C1/C(=O)OC[C@@H]1Oc1c(Cl)cc(Cl)c2ccc(C)nc12` [ZAD-1], the CC50 at 24 h in data set [2] came out at 510 ± 53 µM. For the same molecule, in the data set on PGK1, the “PGK1 expression as compared to andrographolide treatment” value is reported as “significantly increased expression”.
